Assay results taken from US4206116A, “Novel penicillins” (Bristol-Myers Company, priority 1978, dated 1980).
Values after ≈ are worked out from the molar mass of the structure shown. Values joined by “and” are separate entries in the source; they are usually repeats but may differ in a detail not shown here. Identical values can stand only once. Like-named read-outs stand apart in the source and are kept apart here.

Columns and labels:
[1] = Blood Level (im, 20mg/kg); format: in vivo; settings: for half-life / Cmax: blood; for Cmax: read-out: Blood Level peak conc.
S. aureus Smith [2] = experiment: PD50 (mice, im); format: in vivo; settings: Staphylococcus aureus
Ps. aerug. A9843 = experiment: PD50 (mice, im); format: in vivo; settings: for ED50: Mus musculus
P. aeruginosa = experiment: MIC, serial two-fold agar dilution, Mueller-Hinton agar (third P. aeruginosa line, strain not given); format: cell-based; settings: Pseudomonas aeruginosa
Procedure: (§1) Minimum inhibitory concentrations (MIC) of BB-P 652, BB-P 660 and BB-P 661 were determined by serial two-fold agar dilution method using Steer's apparatus on Mueller-Hinton agar plates against S. aureus (6 strains), cephalothinsensitive gram-negative (Gn-I, 13 strains), cephalothinresistant gram-negative (Gn-II, 6 strains) and Ps. aeruginosa (64 strains). The results are shown in Tables 1 and 2 along with piperacillin and carbenicillin.

P. vulgaris A9539 = experiment: MIC, serial two-fold agar dilution, Mueller-Hinton agar; format: cell-based; settings: Proteus vulgaris
Procedure: as §1

K. pneumoniae A9977 = experiment: as above; format: cell-based; settings: Klebsiella pneumoniae
Procedure: as §1

P. mirabilis A9900 = experiment: as above; format: cell-based; settings: Proteus mirabilis
Procedure: as §1

E. coli Juhl [3] = experiment: as above; format: cell-based; settings: Escherichia coli
Procedure: as §1

S. aureus Smith [4] = experiment: as above; format: cell-based; settings: Staphylococcus aureus
Procedure: as §1

P. aeruginosa A9843 = experiment: as above; format: cell-based; settings: Pseudomonas aeruginosa
Procedure: as §1

E. cloacae A9656 = experiment: as above; format: cell-based; settings: Enterobacter cloacae
Procedure: as §1

S. aureus BX-1633 = experiment: as above; format: cell-based; settings: Staphylococcus aureus, BX1633
Procedure: as §1

P. aeruginosa A15150 = experiment: as above; format: cell-based; settings: Pseudomonas aeruginosa
Procedure: as §1

[5] = system: Ps. aeruginosa (64 strains); experiment: Mean % relative activity to carbenicillin from geometric mean MIC; format: cell-based; settings: for Mean % relative activity (carbenicillin = 100%): Ps. aeruginosa, 64 strains, from geometric mean of MIC
Procedure: as §1

[6] = system: Gram-negative (Gn-I), cephalothin-sensitive, 13 strains; experiment: as above; format: cell-based; settings: for Mean % relative activity (carbenicillin = 100%): Gram-negative (Gn-I), 13 strains, from geometric mean of MIC
Procedure: as §1

S. aureus (6 strains) = experiment: as above; format: cell-based; settings: from geometric mean of MIC
Procedure: as §1

[7] = system: Gram-negative (Gn-II), cephalothin-resistant, 6 strains; experiment: as above; format: cell-based; settings: for Mean % relative activity (carbenicillin = 100%): Gram-negative (Gn-II), 6 strains, from geometric mean of MIC
Procedure: as §1

E. coli Juhl [8] = experiment: PD50 (mice, im); format: in vivo; settings: Escherichia coli
gram-positive bacteria = experiment: In vitro activity against gram-positive bacteria (summary of MIC); format: cell-based; settings: in words
Procedure: as §1

gram-negative bacteria = experiment: In vitro gram-negative activity of the isomers (summary of MIC); format: cell-based; settings: in words
Procedure: as §1

Pseudomonas = experiment: Antipseudomonal activity of HPLC fractions; format: cell-based; settings: fractions of preparative HPLC of crude BB-P661
Description: The result is shown below:

[9] = P. aeruginosa A9843, agar dilution, Mueller-Hinton agar, read-out: MIC
[10] = E. coli Juhl, agar dilution, Mueller-Hinton agar, read-out: MIC

SMILES | half-life ([1]; im, 20 mg/kg) | Cmax ([1]; im, 20 mg/kg, im) | ED50 (S. aureus Smith [2]) | ED50 (Ps. aerug. A9843) | MIC (P. aeruginosa) | MIC (P. vulgaris A9539) | MIC (K. pneumoniae A9977) | MIC (P. mirabilis A9900) | MIC (S. aureus Smith [4]) | MIC (P. aeruginosa A9843; [9]) | MIC (E. cloacae A9656) | MIC (S. aureus BX-1633) | MIC (P. aeruginosa A15150) | Mean % relative activity (carbenicillin = 100%) [5] | Mean % relative activity (carbenicillin = 100%) [6] | Mean % relative activity (carbenicillin = 100%) (S. aureus (6 strains)) | Mean % relative activity (carbenicillin = 100%) [7] | ED50 (E. coli Juhl [8]) | activity against gram-positive bacteria, compared with each other (gram-positive bacteria) | MIC (E. coli Juhl [3]; [10]) | other results
CCN1CCN(C(=O)N[C@@H](C(=O)N[C@@H]2C(=O)N3[C@@H]2SC(C)(C)[C@@H]3C(=O)O)c2ccccc2)C(=O)C1=O [piperacillin, reference compound] | 29 min | 4900 ng/mL | 0.8 mg/kg | 45 mg/kg | 25 µg/mL (≈ 48.3 µM) | 0.4 µg/mL (≈ 0.773 µM) | 0.8 µg/mL (≈ 1.55 µM) | 0.8 µg/mL (≈ 1.55 µM) | 0.8 µg/mL (≈ 1.55 µM) | 6.3 µg/mL (≈ 12.2 µM) | 1.6 µg/mL (≈ 3.09 µM) | 3.1 µg/mL (≈ 5.99 µM) | 3.1 µg/mL (≈ 5.99 µM) | 637% | 360% | 56% | 224% | 3.3 mg/kg |  |  | half-life ([1]; sc, 20 mg/kg, route: sc (footnote 2)): 44 min; Blood Level peak conc. ([1]; im, listed as B-P 606, 20 mg/kg): 6200 ng/mL and 9000 ng/mL; Blood Level half life ([1]; route: sc (footnote 2), listed as B-P 606, 20 mg/kg): 30 min; PD50 (Ps. aerug. A9843; listed as B-P 606): 35 mg/kg and 25 mg/kg and 40 mg/kg; MIC (E. coli Juhl [3]): 1.6 µg/mL (≈ 3.09 µM)
CCN1CCN(C(=O)N[C@H](C(=O)N[C@@H]2C(=O)N3[C@@H]2SC(C)(C)[C@@H]3C(=O)O)c2ccc(O)c(O)c2)C(=O)C1=O [BB-P 660, Sodium 6-[L-α-(4-ethyl-2,3-dioxo-1-piperazinocarboxamido)-α-3,4-dihydroxyphenylacetamido]penicillanate] | 39 min | 4000 ng/mL | 7.3 mg/kg | > 100 mg/kg | > 100 µg/mL | > 100 µg/mL | 0.8 µg/mL | 12.5 µg/mL | 6.3 µg/mL | > 100 µg/mL | 12.5 µg/mL | 12.5 µg/mL | > 100 µg/mL | 26% | 200% | 22% | 6% | 7.2 mg/kg | almost as active as each other | 6.3 µg/mL | potency against gram-positive bacteria, compared with piperacillin (gram-positive bacteria): less potent than piperacillin; gram-negative activity, compared among the three isomers (gram-negative bacteria): considerably decreased activity
CC1(C)S[C@@H]2[C@H](NC(=O)C(C(=O)O)c3ccccc3)C(=O)N2[C@H]1C(=O)O (some centres unmarked) [carbenicillin, reference compound] |  |  |  |  | > 100 µg/mL | 1.6 µg/mL (≈ 4.23 µM) | 1.6 µg/mL (≈ 4.23 µM) | 0.8 µg/mL (≈ 2.11 µM) | 0.2 µg/mL (≈ 0.529 µM) | 100 µg/mL (≈ 264 µM) | 1.6 µg/mL (≈ 4.23 µM) | 3.1 µg/mL (≈ 8.19 µM) | 25 µg/mL (≈ 66.1 µM) |  |  |  |  |  |  | 3.1 µg/mL (≈ 8.19 µM) | 
CCN1CCN(C(=O)N[C@@H](C(=O)N[C@@H]2C(=O)N3[C@@H]2SC(C)(C)[C@@H]3C(=O)O)c2ccc(O)c(O)c2)C(=O)C1=O [BB-P 661, Sodium 6-[D-α-(4-ethyl-2,3-dioxo-1-piperazinocarboxamido)-α-(3,4-dihydroxyphenyl)acetamido]penicillinate] | 28 min | 4000 ng/mL | 6.25 mg/kg | 25 mg/kg | 0.8 µg/mL | 0.4 µg/mL | 0.025 µg/mL | 0.4 µg/mL | 6.3 µg/mL | 0.8 µg/mL | 1.6 µg/mL | 12.5 µg/mL | 12.5 µg/mL | 418% | 3030% | 22% | 178% | 1.8 mg/kg | almost as active as each other | 0.4 µg/mL | potency against gram-positive bacteria, compared with piperacillin (gram-positive bacteria): less potent than piperacillin; gram-negative activity, compared among the three isomers (gram-negative bacteria): the most active of the three isomers; antipseudomonal activity (Pseudomonas): exhibited antipseudomonal activity; activity compared with piperacillin against Pseudomonas ([5]; in words): slightly less active; times more active than piperacillin against cephalothin-sensitive gram-negative organisms ([6]; versus piperacillin): about 8 times; activity compared with piperacillin against cephalothin-resistant strains ([7]; in words): slightly less active
CCN1CCN(C(=O)NC(C(=O)N[C@@H]2C(=O)N3[C@@H]2SC(C)(C)[C@@H]3C(=O)O)c2ccc(O)c(O)c2)C(=O)C1=O (mixture of isomers) [BB-P 652, Sodium 6-[DL-α-(4-ethyl-2,3-dioxo-1-piperazinocarboxamido)-α-3,4-dihydroxyphenylacetamido]penicillanate] | 32 min | 8300 ng/mL | 4.5 mg/kg | 30 mg/kg | 6.3 µg/mL | 0.8 µg/mL | 0.05 µg/mL | 0.8 µg/mL | 6.3 µg/mL |  | 1.6 µg/mL | 12.5 µg/mL | 50 µg/mL | 271% | 1780% | 25% | 112% | 1.8 mg/kg | almost as active as each other | 0.8 µg/mL | Blood Level half life ([1]; im, 20 mg/kg): 39 min; Blood Level peak conc. ([1]; im, 20 mg/kg): 4500 ng/mL; potency against gram-positive bacteria, compared with piperacillin (gram-positive bacteria): less potent than piperacillin; MIC (P. aeruginosa A9843; A9843): 3.1 µg/mL
